Among the data in patent US5185257A, “Thermostable xanthine oxidase from Arthrobacter luteus” (Toyo Boseki Kabushiki Kaisha, priority 1990, dated 1993) are Km values, retold here.

Test [1] concerns Arthrobacter luteus ATCC 21606 thermostable xanthine oxidase (enzyme of the invention). The test is described as follows: km value of the thermostable xanthine oxidase of the invention. It is filed as biochemical. Here is the method: 50 mM tris-hydrochloric acid buffer (2.9 ml) and 0.1 ml of a 10 mM aqueous solution of xanthine are mixed, and this mixture is pre-heated at 37° C. After 0.01 ml of enzyme solution is added and gently mixed, the increase of absorbance at 293 nm per minute is determined using a spectrophotometer thermostated at 37° C. with distilled water as the control. The xanthine oxidase activity is expressed on the assumption that the amount of enzyme which produces 1 μmol of uric acid per minute under the conditions described above is taken as 1 unit (U).
After 0.01 ml of enzyme solution is added and gently mixed, the increase of absorbance at 550 nm per minute is determined using a spectrophotometer thermostated at 37° C. with distilled water as the control. The xanthine oxidase activity is expressed on the assumption that the amount of enzyme which produces 1 μmol of quinone imine pigment per minute under the conditions described above is taken as 1 unit (U).

Test [2] has as its system xanthine oxidase derived from Enterobacter cloacae. The test is described as follows: km value of the comparative xanthine oxidase from Enterobacter cloacae. It is filed as biochemical. The conditions noted are these: Table 1, Comparative Example.
Source text: Determinations were made for conventional xanthine oxidase derived from milk and xanthine oxidase derived from Enterobacter cloacae.

Where two headings read alike, the source gives them in different places.

Consider `O=c1[nH]cnc2nc[nH]c12` [hypoxanthine], for which the Michaelis constant (Km) in test [1] (read-out: km value for hypoxanthine, pH 7.5) is approximately 52 µM; in test [1] (read-out: km value hypoxanthine, Table 1, enzyme of Example 1) it was 52 µM; in test [2] (read-out: km value hypoxanthine), 83 µM.
Turning to `O=c1[nH]c(=O)c2[nH]cnc2[nH]1` [xanthine], the Km in test [1] (Table 1, enzyme of Example 1, read-out: km value xanthine) is 54 µM; in test [1] (pH 7.5, read-out: km value for xanthine), approximately 54 µM; in test [2] (read-out: km value xanthine) it was 73 µM.

By Km is commonly meant the concentration of substrate that gives half-maximal velocity.
